Consider 17 molecules from PMC8597055, “Exploration of Pyrazolo[1,5‐a]pyrimidines as Membrane‐Bound Pyrophosphatase Inhibitors” (Chemmedchem, 2021).

Several values for one entry are separate records, joined by “and”; a condition that tells them apart may be missing. Equal entries are not always repeated. Entries after “also recorded” stand apart in the source; their conditions may differ.

One may read the IC50 as the concentration needed to halve the response being measured.

For this assay, the target named is Thermotoga maritima mPPase (TmPPase) (Thermotoga maritima, UniProt Q9S5X0). The assay can be described thus: TmPPase inhibition assay (96-well). The following applies: for IC50 [CI95%] / IC50: TmPPase inhibition, NA = IC50 not assigned; for IC50: read-out: IC50 [CI95%]. The class given is biochemical. The text has this:
We started from the previously identified 5‐arylisoxazole‐3‐carboxylate core present in 2–5 (Figure 1, highlighted in blue). Using KNIME,[30] we did a substructure search for commercial analogues in the ZINC12 database[31] […] Therefore, we manually picked compounds from a diverse collection provided by a single vendor (Ambinter, 174 matches for the substructure query). Out of the search results, we selected fifteen isoxazoles for testing in vitro. For all compounds in this manuscript, we tested activity using a 96‐well based assay that detects the inhibition of TmPPase.[22, 23, 24]
All commercially obtained compounds had purities >90 % as specified by the vendor. Synthesized compounds were >95 % pure as determined by LC–MS and characterized by HRMS. The inhibition assay was carried out with purified TmPPase as previously reported.[22, 23, 24] The best hits 17 a, 19 a, and 20 a, were validated using eight compound concentrations in triplicate. Further hit validation was done against the purified mPPase from P. falciparum (PfPPase‐VP1) expressed in baculovirus‐infected insect cells (expression, purification and further enzyme analysis will be described in more detail elsewhere). 4 μL of the purified PfPPase‐VP1 (2.0 mg/mL) was reactivated in 96 μL of reactivation buffer, i. e. 20 mM 2‐(N‐morpholino)ethanesulfonic acid (MES) pH 6.5, 3.5 % (v/v) glycerol, 2 mM dithiothreitol (DTT) and 12 mg/mL L‐α‐phosphatidylcholine from soybean. For each tube strip, 3 μL of the reactivated PfPPase‐VP1 was added into 12 μL of reaction buffer (200 mM Tris‐Cl pH 8.0, 8.0 mM MgCl2, 333 mM KCl, 67 mM NaCl) and 25 μL of inhibitor solution. The reaction mixtures were incubated at 50 °C for 5 min and the assay was started with the addition of 10 μL of 2 mM sodium pyrophosphate and further incubation at 50 °C for 45 min. The reaction termination and colour development were done as earlier described.[22, 23, 24]
6 IC50 plots from the TmPPase inhibition assay
The blue and black curves refer to compounds presented already in the main article and only shown in the Supporting Information, respectively. IC50, half maximal inhibitory concentration; CI95%, half maximal inhibitory concentration expressed as a 95% confidence interval (given in square brackets); […]
IC50 determinations were done using R 3.6.1[2] and the n-parameter logistic regression (nplr) package[3] version 0.1.7. In this package, the weighted nplr, given x (compound concentrations) and y values (activity) is calculated using Richard’s equation (eq 1) where B and T are the bottom and top asymptotes, respectively; b and xmid are the Hill slope and the x coordinate at inflexion point, respectively; and s is an asymmetric coefficient. The model parameters were simultaneously optimized using non-linear minimization, using a sum of squared errors.[4] The standard error of the model, defined as the squared error on the fitted values, is used to estimate a confidence interval at 95% on the predicted IC50 values.

Thermotoga maritima mPPase (TmPPase), sequence (Q9S5X0 whole entry): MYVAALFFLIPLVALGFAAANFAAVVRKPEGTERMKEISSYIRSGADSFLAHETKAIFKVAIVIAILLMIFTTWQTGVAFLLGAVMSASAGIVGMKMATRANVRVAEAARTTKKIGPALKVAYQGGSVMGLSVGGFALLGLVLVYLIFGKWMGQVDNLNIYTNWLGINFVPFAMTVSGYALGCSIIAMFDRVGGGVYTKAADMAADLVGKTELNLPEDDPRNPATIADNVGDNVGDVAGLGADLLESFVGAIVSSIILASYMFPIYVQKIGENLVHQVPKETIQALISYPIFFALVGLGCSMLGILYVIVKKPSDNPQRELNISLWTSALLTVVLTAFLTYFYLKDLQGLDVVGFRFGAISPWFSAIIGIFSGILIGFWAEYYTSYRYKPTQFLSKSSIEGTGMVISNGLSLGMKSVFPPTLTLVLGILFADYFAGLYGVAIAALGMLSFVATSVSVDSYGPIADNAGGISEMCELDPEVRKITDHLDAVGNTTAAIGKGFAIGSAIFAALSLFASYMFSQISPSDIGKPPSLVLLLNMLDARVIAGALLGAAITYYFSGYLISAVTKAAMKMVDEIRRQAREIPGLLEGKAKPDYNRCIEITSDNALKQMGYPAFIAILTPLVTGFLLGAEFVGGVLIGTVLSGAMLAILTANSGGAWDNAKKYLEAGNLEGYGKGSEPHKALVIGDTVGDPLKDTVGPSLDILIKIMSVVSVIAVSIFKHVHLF

As for `CCOC(=O)c1cc(-c2cc(C)cc(C)c2)n2nc(Br)cc2n1` [15 a, Ethyl 2‐bromo‐7‐(3,5‐dimethylphenyl)pyrazolo[1,5‐a]pyrimidine‐5‐carboxylate], the “IC50 [CI95%]” value is given as “weak activity” and the IC50 turned out to be 120 µM.

On to `CCOC(=O)c1cc(C2CC2)n2nc(Br)cc2n1` [15 b, Ethyl 2‐bromo‐7‐cyclopropylpyrazolo[1,5‐a]pyrimidine‐5‐carboxylate], for which the “IC50 [CI95%]” value is “only slightly effective” and the IC50 was determined as 150 µM.

Consider `Cc1cc(C)cc(-c2cc(C(=O)O)nc3cc(Br)nn23)c1` [16 a, 2‐Bromo‐7‐(3,5‐dimethylphenyl)pyrazolo[1,5‐a]pyrimidine‐5‐carboxylic acid], for which the “IC50 [CI95%]” value was “inactive”.

Turning to `O=C(O)c1cc(C2CC2)n2nc(Br)cc2n1` [16 b, 2‐Bromo‐7‐cyclopropylpyrazolo[1,5‐a]pyrimidine‐5‐carboxylic acid], the “IC50 [CI95%]” value is listed as “completely unsuccessful”. Moreover, for the setting “listed as 16b”, the “IC50 [CI95%]” value is “Inactive”.

For `O=C(Oc1ccccc1Br)c1cc(C2CC2)n2nc(Br)cc2n1` [17 b, 2‐Bromophenyl 2‐bromo‐7‐cyclopropylpyrazolo[1,5‐a]pyrimidine‐5‐carboxylate], the “IC50 [CI95%]” value is reported as “completely unsuccessful”. In addition, the “IC50 [CI95%]” value (listed as 17b) is given as “Inactive”.

Take `C=Cc1cc2nc(C(=O)OCC)cc(-c3cc(C)cc(C)c3)n2n1` [18 a, Ethyl 7‐(3,5‐dimethylphenyl)‐2‐vinylpyrazolo[1,5‐a]pyrimidine‐5‐carboxylate]: the IC50 came out at 54 µM. Also, the “fold improvement in the inhibition compared to 2-bromo analogue 15 a” value (TmPPase, 18 a versus 15 a) is given as 2.2 fold.

For the molecule `C=Cc1cc2nc(C(=O)OCC)cc(C3CC3)n2n1` [18 b, Ethyl 7‐cyclopropyl‐2‐vinylpyrazolo[1,5‐a]pyrimidine‐5‐carboxylate], the “IC50 [CI95%]” value is “Inactive”.

As to `C=Cc1cc2nc(C(=O)O)cc(C3CC3)n2n1` [19 b, 7‐Cyclopropyl‐2‐vinylpyrazolo[1,5‐a]pyrimidine‐5‐carboxylic acid], the “IC50 [CI95%]” value is listed as “Inactive”.

Turning to `C=Cc1cc2nc(C(=O)Oc3ccccc3Br)cc(C3CC3)n2n1` [20 b, 2‐Bromophenyl 7‐cyclopropyl‐2‐vinylpyrazolo[1,5‐a]pyrimidine‐5‐carboxylate], the “IC50 [CI95%]” value is on record as “Inactive”.

For the molecule `C=Cc1cc2nc(C(=O)NCCN)cc(-c3cc(C)cc(C)c3)n2n1` [21 a, N ‐(2‐Aminoethyl)‐7‐(3,5‐dimethylphenyl)‐2‐vinylpyrazolo[1,5‐a]pyrimidine‐5‐carboxamide], the IC50 is 72 µM. The “fold higher inhibition than cyclopropyl-substituted analogue 21 b” value (TmPPase, 21 a versus 21 b) is reported as 3.6 fold.

For `C=Cc1cc2nc(C(=O)NCCN)cc(C3CC3)n2n1` [21 b, N ‐(2‐Aminoethyl)‐7‐cyclopropyl‐2‐vinylpyrazolo[1,5‐a]pyrimidine‐5‐carboxamide], the IC50 stood at 260 µM.

With `CCOC(=O)c1cc(-c2ccc(OC)c(S(=O)(=O)N3CCCSc4ccccc43)c2)on1` [compound 6], the IC50 worked out at 5.4 µM.

For the molecule `CCOC(=O)c1cc(-c2ccc(OC)c(S(=O)(=O)N3c4ccccc4CC3C)c2)on1` (stereo not drawn) [compound 7], the IC50 was 56 µM.

`CCOC(=O)c1cc(-c2ccc(OC)c(S(=O)(=O)N3CC(C)CSc4ccccc43)c2)on1` (stereo not drawn) [compound 8]: the “IC50 [CI95%]” value is reported as “Inactive; also recorded: not tolerated”.

As to `CCOC(=O)c1cc(-c2ccc(OC)c(S(=O)(=O)N3CCSc4ccccc43)c2)on1` [compound 9], the “IC50 [CI95%]” value is recorded as “Inactive; also recorded: loss of all TmPPase inhibitory activity”.

Regarding `CCOC(=O)c1cc(-c2ccc(OC)c(S(=O)(=O)N3CC(C)Sc4ccccc43)c2)on1` (stereo not drawn) [compound 10], the “IC50 [CI95%]” value was “Inactive; also recorded: loss of all TmPPase inhibitory activity”.

Take `COc1ccccc1S(=O)(=O)Nc1ccc(N(C)C)cc1` [compound 11]: the IC50 is < 25 µM and 14 µM. The “ligand efficiency (LE)” value (computed from pIC50 and heavy atom count) amounted to 0.23.
